Assay: Antagonist activity at CCR5 receptor expressed in HeLa-P4 cells co-expressing CD4 assessed as inhibition of infusion to HIV gp120 expressed in CHO-tat10 cells after 20 hrs by cell-cell fusion assay

Structure (SMILES) | IC50 [nM]
CC(=O)N[C@@H](CCN1[C@@H]2CC[C@H]1C[C@@H](n1c(C)nc3c1CN(C(C)C)CC3)C2)c1ccccc1 [endo-N-((S)-3-(3-(5-isopropyl-2-methyl-4,5,6,7-tetrahydro-3H-imidazo[4,5-c]pyridin-3-yl)-8-azabicyclo[3.2.1]octan-8-yl)-1-phenylpropyl)acetamide] | 3
CC(=O)N[C@@H](CCN1[C@@H]2CC[C@H]1C[C@@H](n1c(C)nc3c1CN(C)CC3)C2)c1ccccc1 [endo-N-((S)-3-(3-(2,5-dimethyl-4,5,6,7-tetrahydro-3H-imidazo[4,5-c]pyridin-3-yl)-8-azabicyclo[3.2.1]octan-8-yl)-1-phenylpropyl)acetamide] | 5
COC(=O)N[C@@H](CCN1[C@@H]2CC[C@H]1C[C@@H](n1c(C)nc3c1CN(C(C)=O)CC3)C2)c1ccccc1 [endo-methyl(S)-3-(3-(5-acetyl-2-methyl-4,5,6,7-tetrahydro-3H-imidazo[4,5-c]pyridin-3-yl)-8-azabicyclo[3.2.1]octan-8-yl)-1-phenylpropylcarbamate] | 0.6
COC(=O)N1CCc2nc(C)n([C@H]3C[C@H]4CC[C@@H](C3)N4CC[C@H](NC(C)=O)c3cccc(F)c3)c2C1 [endo-methyl 3-(8-((S)-3-acetamido-3-(3-fluorophenyl)propyl)-8-azabicyclo[3.2.1]octan-3-yl)-2-methyl-6,7-dihydro-3H-imidazo[4,5-c]pyridine-5(4H)-carboxylate] | 0.1
CC(=O)N[C@@H](CCN1[C@@H]2CC[C@H]1C[C@@H](n1c(C)nc3c1CN(S(C)(=O)=O)CC3)C2)c1ccccc1 [endo-N-((S)-3-(3-(2-methyl-5-(methylsulfonyl)-4,5,6,7-tetrahydro-3H-imidazo[4,5-c]pyridin-3-yl)-8-azabicyclo[3.2.1]octan-8-yl)-1-phenylpropyl)acetamide] | 2
COC(=O)N[C@@H](CCN1[C@@H]2CC[C@H]1C[C@@H](n1c(C)nc3c1CN(C(=O)OC)CC3)C2)c1cccc(F)c1 [endo-methyl 3-(8-((S)-3-(3-fluorophenyl)-3-(methoxycarbonylamino)propyl)-8-azabicyclo[3.2.1]octan-3-yl)-2-methyl-6,7-dihydro-3H-imidazo[4,5-c]pyridine-5(4H)-carboxylate] | 0.2
Cc1nc(C(C)C)n([C@H]2C[C@H]3CC[C@@H](C2)N3CC[C@H](NC(=O)C2CCC(F)(F)CC2)c2ccccc2)n1 [endo-4,4-difluoro-N-((S)-3-(3-(5-isopropyl-3-methyl-1H-1,2,4-triazol-1-yl)-8-azabicyclo[3.2.1]octan-8-yl)-1-phenylpropyl)cyclohexanecarboxamide] | 1.4
CC(=O)N[C@@H](CCN1[C@@H]2CC[C@H]1C[C@@H](n1c(C)nc3c1CN(C(=O)C(C)C)CC3)C2)c1ccccc1 [endo-N-((S)-3-(3-(5-isobutyryl-2-methyl-4,5,6,7-tetrahydro-3H-imidazo[4,5-c]pyridin-3-yl)-8-azabicyclo[3.2.1]octan-8-yl)-1-phenylpropyl)acetamide] | 0.4
CC(=O)N[C@@H](CCN1[C@@H]2CC[C@H]1C[C@@H](n1c(C)nc3c1CNCC3)C2)c1ccccc1 [endo-N-((S)-3-(3-(2-methyl-4,5,6,7-tetrahydro-3H-imidazo[4,5-c]pyridin-3-yl)-8-azabicyclo[3.2.1]octan-8-yl)-1-phenylpropyl)acetamide] | 9
CC(=O)N[C@@H](CCN1[C@@H]2CC[C@H]1C[C@@H](n1c(C)nc3ccccc31)C2)c1ccccc1 [endo-N-((S)-3-(3-(2-methyl-1H-benzo[d]imidazol-1-yl)-8-azabicyclo[3.2.1]octan-8-yl)-1-phenylpropyl)acetamide] | 0.5
CC(=O)N[C@@H](CCN1[C@@H]2CC[C@H]1C[C@@H](n1c(C)nc3c1CN(C(C)=O)CC3)C2)c1ccccc1 [endo-N-((S)-3-(3-(5-acetyl-2-methyl-4,5,6,7-tetrahydro-3H-imidazo[4,5-c]pyridin-3-yl)-8-azabicyclo[3.2.1]octan-8-yl)-1-phenylpropyl)acetamide] | 0.4
CC(=O)N[C@@H](CCN1[C@@H]2CC[C@H]1C[C@@H](n1c(C)nc3c1CN(Cc1ccccc1)CC3)C2)c1ccccc1 [endo-N-((S)-3-(3-(5-benzyl-2-methyl-4,5,6,7-tetrahydro-3H-imidazo[4,5-c]pyridin-3-yl)-8-azabicyclo[3.2.1]octan-8-yl)-1-phenylpropyl)acetamide] | 29
COC(=O)N1CCc2nc(C)n([C@H]3C[C@H]4CC[C@@H](C3)N4CC[C@H](NC(C)=O)c3ccccc3)c2C1 [endo-methyl 3-(8-((S)-3-acetamido-3-phenylpropyl)-8-azabicyclo[3.2.1]octan-3-yl)-2-methyl-6,7-dihydro-3H-imidazo[4,5-c]pyridine-5(4H)-carboxylate] | 0.3
CCC(=O)N1CCc2nc(C)n([C@H]3C[C@H]4CC[C@@H](C3)N4CC[C@H](NC(C)=O)c3ccccc3)c2C1 [endo-N-((S)-3-(3-(2-methyl-5-propionyl-4,5,6,7-tetrahydro-3H-imidazo[4,5-c]pyridin-3-yl)-8-azabicyclo[3.2.1]octan-8-yl)-1-phenylpropyl)acetamide] | 0.4
COC(=O)N[C@@H](CCN1[C@@H]2CC[C@H]1C[C@@H](n1c(C)nc3c1CN(C(C)=O)CC3)C2)c1cccc(F)c1 [endo-methyl(S)-3-(3-(5-acetyl-2-methyl-4,5,6,7-tetrahydro-3H-imidazo[4,5-c]pyridin-3-yl)-8-azabicyclo[3.2.1]octan-8-yl)-1-(3-fluorophenyl)propylcarbamate] | 0.2

Source: BindingDB's records for doi:10.1021/jm100978n (Pfizer, 2011)
